Assay [1] addresses T1, P. falciparum proteasome, β5 activity (20S CP / 26S) (Plasmodium falciparum, UniProt Q8IJT1).
T1 construct: gene PF3D7_1011400; native proteasome in NP-40 lysate of 26-30 hpi trophozoites; with Proteasome subunit beta type-7 (beta2 subunit); Proteasome subunit beta type-6 (beta1 subunit)
In words: Suc-LLVY-AMC cleavage in lysate of treated trophozoites. The format is cell-based. Particulars: intact parasites treated 3 h with 50 or 700 nM, then lysed; direct action on the proteasome not shown; non-specific alkylator; pH 7.5, 37 °C.

In assay [2] the target is T2, P. falciparum proteasome, β2 activity (20S CP / 26S) (Plasmodium falciparum, UniProt Q8I6T3).
T2 construct: gene PF3D7_1328100; native proteasome in NP-40 lysate of 26-30 hpi trophozoites; with Proteasome subunit beta type-5; Proteasome subunit beta type-6 (beta1 subunit)
T2 sequence (Q8I6T3 entry or part of it): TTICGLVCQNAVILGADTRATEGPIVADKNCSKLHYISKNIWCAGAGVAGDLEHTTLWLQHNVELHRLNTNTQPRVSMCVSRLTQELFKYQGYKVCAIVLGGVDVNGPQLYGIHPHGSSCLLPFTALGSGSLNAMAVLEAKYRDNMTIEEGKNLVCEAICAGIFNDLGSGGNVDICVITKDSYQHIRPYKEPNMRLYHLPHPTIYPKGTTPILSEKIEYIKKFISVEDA
Put plainly: Ac-RLR-AMC cleavage in lysate of treated trophozoites. The format is cell-based. The conditions noted are these: intact parasites treated 3 h with 50 or 700 nM, then lysed; direct action on the proteasome not shown; non-specific alkylator; pH 7.5, 37 °C.

Assay [3] addresses T3, P. falciparum proteasome, β1 activity (20S CP / 26S) (Plasmodium falciparum, UniProt Q8I0U7).
T3 construct: gene PF3D7_0931800; native proteasome in NP-40 lysate of 26-30 hpi trophozoites; with Proteasome subunit beta type-7 (beta2 subunit); Proteasome subunit beta type-5
In words: Ac-nLPnLD-AMC cleavage in lysate of treated trophozoites. The format is cell-based. The conditions noted are these: intact parasites treated 3 h with 50 or 700 nM, then lysed; direct action on the proteasome not shown; non-specific alkylator; pH 7.5, 37 °C.

Assay [4] concerns the target T1, P. falciparum proteasome, β5 activity (20S CP / 26S). In words: Suc-LLVY-AMC cleavage in lysate of treated trophozoites. The format is cell-based.
Assay [5] concerns T4, P. falciparum proteasome, β5 activity (20S CP / 26S).
T4 construct: gene beta5
The conditions noted are these: intact Kelch13 C580Y parasites treated 3 h, then lysed; direct action on the proteasome not shown; 6 µM substrate, pH 7.5, 37 °C; mutation in the neighbouring β2 subunit, β5 wild type.

T1 sequence (Q8IJT1 entry or part of it): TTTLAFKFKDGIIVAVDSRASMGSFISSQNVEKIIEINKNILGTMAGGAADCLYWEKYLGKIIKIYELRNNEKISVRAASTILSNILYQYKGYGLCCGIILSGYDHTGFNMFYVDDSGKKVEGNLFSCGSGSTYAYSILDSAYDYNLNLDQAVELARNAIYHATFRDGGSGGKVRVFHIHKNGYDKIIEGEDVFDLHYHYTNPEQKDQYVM
T3 sequence (Q8I0U7 entry or part of it): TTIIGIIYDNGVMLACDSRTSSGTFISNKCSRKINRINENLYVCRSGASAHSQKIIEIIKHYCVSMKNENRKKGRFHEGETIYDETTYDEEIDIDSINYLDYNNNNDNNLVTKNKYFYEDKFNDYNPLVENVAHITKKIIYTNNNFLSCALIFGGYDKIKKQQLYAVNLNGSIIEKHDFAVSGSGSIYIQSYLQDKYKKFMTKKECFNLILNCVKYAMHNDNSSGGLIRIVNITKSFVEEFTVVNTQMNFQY

On to `C[C@@H]1CC[C@H]2[C@@H](C)C(O)O[C@@H]3O[C@@]4(C)CC[C@@H]1[C@]32OO4` (some centres unmarked) [DHA], for which the “% activity” value in assay [1], in assay [2] and in assay [3] was “DHA inhibited all three catalytic subunits of proteasomes derived from Kelch13^WT” throughout.
By inhibition is commonly meant the relative decrease from the control value, in per cent. A low value points to a weak effect. For orientation: % inhibition means the drop in the measured response relative to a control, in per cent. Higher therefore signals a strong effect. The compound `c1cc(C2CCC3(CC2)OOC2(O3)C3CC4CC(C3)CC2C4)ccc1OCCN1CCOCC1` (centres unmarked) [OZ439] returned an inhibition at 3 µM in assay [4] of 28%. In addition, the “% inhibition at 3 μM” value in assay [5] is reported as 52%.

(Values after article PMC11580438, “Enhanced cell stress response and protein degradation capacity underlie artemisinin resistance in Plasmodium falciparum” (mSphere, 2024).)
